Reference: PMC12188165, “Engineering of the Thiamine Diphosphate‐Dependent JanthE for the Synthesis of Tertiary Alcohols” (Chemistry (Weinheim an Der Bergstrasse, Germany), 2025)
Where two headings read alike, the source gives them in different places. Values belong to the molecule of their own block, whether it stands above or below them.

How the values were obtained:
JanthE = target: T1, JanthE (Janthinobacterium sp. HH01, UniProt A0AAT8XUE4, K568S, form not given); assay: initial-rate kinetics, formation of product […]; format: biochemical; settings: 1 mM Mg2+, 0.05 mM ThDP, 200 mM NaCl, 100 mM sodium phosphate pH 8, read-out: K567S
T1 construct: purified enzyme; expression and tag details only in supplement
T1 sequence (A0AAT8XUE4 entry or part of it K568S, form open): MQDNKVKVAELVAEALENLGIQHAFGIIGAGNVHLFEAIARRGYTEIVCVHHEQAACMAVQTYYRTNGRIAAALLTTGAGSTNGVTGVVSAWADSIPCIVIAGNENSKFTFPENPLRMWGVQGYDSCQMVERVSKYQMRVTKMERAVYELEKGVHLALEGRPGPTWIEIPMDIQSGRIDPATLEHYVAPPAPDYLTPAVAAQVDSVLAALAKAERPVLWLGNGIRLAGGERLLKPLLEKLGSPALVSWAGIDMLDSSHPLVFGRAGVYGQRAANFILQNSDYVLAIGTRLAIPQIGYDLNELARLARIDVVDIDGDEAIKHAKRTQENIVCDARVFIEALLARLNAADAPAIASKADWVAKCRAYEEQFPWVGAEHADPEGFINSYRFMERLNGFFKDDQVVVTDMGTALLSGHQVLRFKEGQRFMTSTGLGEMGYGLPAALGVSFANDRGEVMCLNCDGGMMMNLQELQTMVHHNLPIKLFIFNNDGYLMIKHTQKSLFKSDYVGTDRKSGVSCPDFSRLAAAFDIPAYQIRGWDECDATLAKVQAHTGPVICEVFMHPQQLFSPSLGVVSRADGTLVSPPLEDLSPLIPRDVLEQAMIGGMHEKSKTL

purified protein [1] = substrate: CC(=O)COc1ccccc1; assay: purified protein; format: biochemical, Janthinobacterium sp. HH01; settings: 50 mM 2-oxobutanoate co-substrate, 1 mM Mg2+, 0.05 mM ThDP, 200 mM NaCl, 100 mM sodium phosphate pH 8
purified protein [2] = substrate: CCC(=O)C(=O)O; assay: purified protein; format: biochemical, Janthinobacterium sp. HH01; settings: 20 mM phenoxy-2-propanone co-substrate, 1 mM Mg2+, 0.05 mM ThDP, 200 mM NaCl, 100 mM sodium phosphate pH 8

- Km (JanthE; 20 mM phenoxy-2-propanone co-substrate): 0.74 ± 0.31 mM
Molecule: CCC(=O)C(=O)O [compound 2, 2-oxobutanoate]

- Km (JanthE; 50 mM 2-oxobutanoate co-substrate): 31.8 ± 6 mM
Molecule: CC(=O)COc1ccccc1 [compound 6, phenoxy-2-propanone]

B1: JanthE (Janthinobacterium sp. HH01) (protein)
chain: MQDNKVKVAELVAEALENLGIQHAFGIIGAGNVHLFEAIARRGYTEIVCVHHEQAACMAVQTYYRTNGRIAAALLTTGAGSTNGVTGVVSAWADSIPCIVIAGNENSKFTFPENPLRMWGVQGYDSCQMVERVSKYQMRVTKMERAVYELEKGVHLALEGRPGPTWIEIPMDIQSGRIDPATLEHYVAPPAPDYLTPAVAAQVDSVLAALAKAERPVLWLGNGIRLAGGERLLKPLLEKLGSPALVSWAGIDMLDSSHPLVFGRAGVYGQRAANFILQNSDYVLAIGTRLAIPQIGYDLNELARLARIDVVDIDGDEAIKHAKRTQENIVCDARVFIEALLARLNAADAPAIASKADWVAKCRAYEEQFPWVGAEHADPEGFINSYRFMERLNGFFKDDQVVVTDMGTALLSGHQVLRFKEGQRFMTSTGLGEMGYGLPAALGVSFANDRGEVMCLNCDGGMMMNLQELQTMVHHNLPIKLFIFNNDGYLMIKHTQKSLFKSDYVGTDRKSGVSCPDFSRLAAAFDIPAYQIRGWDECDATLAKVQAHTGPVICEVFMHPQQLFSPKLGVVSRADGTLVSPPLEDLSPLIPRDVLEQAMIGGMHEKSKTL
notes: purified enzyme; expression and tag details only in supplement
- Km (purified protein [1]): 24.6 ± 3.8 mM
- Km (purified protein [2]): 0.92 ± 0.26 mM
